According to paper PMC12298883, “Discovery of Cyclopentane-Based Phospholipids as Miltefosine Analogs with Superior Potency and Enhanced Selectivity Against Naegleria fowleri” (Pharmaceuticals, 2025):
Where two headings read alike, the source gives them in different places.

How the values were obtained:
[1] = Cytotoxicity assay for C6 cells (CellTiter-Blue); type: cell-based; conditions: rat, C6 glial cells, viability, mean ± SD
Method: (§1) A viability assay was performed to evaluate the inhibitory activity of the tested compounds by determining their IC50 values against N. fowleri, using miltefosine as a reference drug. To assess the selectivity of the tested compounds relative to miltefosine, cytotoxic values that reduced the viability of C6 glial cells by 50% were established.
(§2) N. fowleri Carter NF69 strain (ATCC 30215; American Type Culture Collection, Manassas, VA, USA) was used. Amoeba trophozoites were cultured and maintained in Nelson’s medium containing 5% foetal bovine serum (FBS; Gibco, Grand Island, NY, USA) and 1% penicillin/streptomycin (P/S; Gibco, Grand Island, NY, USA) at 37 °C [56]. C6 rat glial cells (C6 cells; ATCC CCL-107) were cultured in Dulbecco’s Modified Eagle’s Medium (DMEM; Gibco, Grand Island, NY, USA) supplemented with 10% FBS (Gibco, Grand Island, NY, USA) and 1% P/S (Gibco, Grand Island, NY, USA) at 37 °C in a humidified incubator under 5% CO2 atmosphere.
The potential cytotoxicity of tested compounds and miltefosine in C6 cells was analysed. The cells were seeded in a 96-well microplate (Thermo Fisher Scientific; 2 × 10^4 cells/well), respectively, and incubated overnight until 80% confluent. Serially diluted tested compounds and miltefosine were treated to the cells as described above. Morphological changes of the cells were observed by microscopic examination. Cell viability was determined using the CellTiter-Blue® Cell viability assay (Promega, […], USA). The cytotoxic concentrations 50 (CC50) of tested compounds and miltefosine were calculated using GraphPad Prism 9.1.0 software (GraphPad Software, San Diego, CA, USA). The […] (SI) was determined by the ratio between CC50 and IC50. Cells treated with 0.1% DMSO, which was confirmed not to alter the morphology of the cells by microscopic examination, were used as controls with 100% cell viability.

N. fowleri trophozoites [2] = assay: Anti-amoebic viability assay (CellTiter-Blue) with microscopic observation; type: cell-based, Naegleria fowleri; conditions: for Selectivity Index: CC50 of C6 glial cell divided by IC50 of inhibition of N. fowleri; for IC50 / IC90: 48 h, N. fowleri trophozoites, viability; for IC50: mean ± SD of three assays, read-out: IC50 of Inhibition of N. fowleri; for IC90: mean ± SD; for morphological changes of N. fowleri (microscopy): treated trophozoites versus 0.1% DMSO negative control; for Relative Potency to Miltefosine: IC50 of miltefosine divided by IC50 of compound, N. fowleri
Method: as §1, §2
N. fowleri trophozoites (5 × 10^4 cells/well) were seeded in a 96-well microplate (Thermo Fisher Scientific, Waltham, MA, USA) in Nelson’s medium and incubated at 37 °C overnight. N. fowleri trophozoites were treated with 2-fold serial dilutions of tested compounds (from 0 to 200 µM) or miltefosine (150 µM) and incubated at 37 °C for 48 h. The viability of the amoebae was determined using the CellTiter-Blue® Cell viability assay (Promega, Madison, WI, USA). Inhibitory concentration 50 (IC50) and IC90 were calculated by the nonlinear regression method using GraphPad Prism 9.1.0 software (GraphPad Software, San Diego, CA, USA). Amoebae treated with 0.1% DMSO were used as a control, representing 100% cell viability. Morphological changes of the amoebae were observed microscopically.

N. fowleri trophozoites [3] = assay: JC-1 mitochondrial membrane potential assay; type: cell-based, Naegleria fowleri; conditions: at IC90, 48 h
Method: To determine whether the apoptotic death of N. fowleri induced by compounds 2a, 3b and 3d is associated with mitochondrial dysfunction, the mitochondrial membrane potential (ΔΨm) was assessed using a JC-1 assay. The potential difference across the membrane in functioning mitochondria leads to the accumulation of cationic lipophilic fluorescent JC-1 molecules, forming red fluorescence (J-aggregate). Mitochondrial dysfunction results in the loss of mitochondrial membrane potential, leading to the transition from J-aggregates to monomers (green fluorescence). […] The absence of green and strong red fluorescence in untreated amoebae indicates healthy, functional mitochondria maintaining their ΔΨm. The shift to predominantly green fluorescence upon treatment with miltefosine, as well as compounds 2a, 3b and 3d, signifies a loss of ΔΨm, a critical early event in the intrinsic apoptotic pathway (Figure 7). Disruption of ΔΨm leads to the release of pro-apoptotic factors from the mitochondria, triggering the caspase cascade and, ultimately cell death. This observation aligns with the previous finding of DNA fragmentation and membrane compromise, further solidifying the apoptotic mechanism of these compounds.
Figure 7 Disruption of mitochondrial functions in N. fowleri. Mitochondrial membrane potential changes. Aggregate form (RFP channel, Ex/Em = 550/650 nm), implying healthy mitochondria, was found in N. fowleri trophozoites treated with 0.1% DMSO (NC), while monomer (GFP channel, Ex/Em = 490/525 nm) indicating the collapse of mitochondrial membrane potential was increased in treated amoebae. Miltefosine (MF) was included as a positive control drug. Images were representatives of the cell population in three individual experiments. Size bar: 10 µm.
The electrochemical gradient changes across the mitochondrial membrane in N. fowleri upon treatment of compounds 2a, 3b and 3d were measured using the JC-1 Mitochondrial Membrane Potential Assay Kit (Abcam, Cambridge, UK). The amoeba trophozoites (5 × 10^4 cells/well) were seeded in a 96-well black/clear bottom plate and incubated with compounds 2a, 3b or 3d (IC90) at 37 °C for 48 h. The JC-1 assay was conducted as described previously. The amoebae treated with Nelson’s medium containing 0.1% DMSO and miltefosine (IC90) were used as negative and positive controls, respectively.

SMILES | CC50 [1] [µM] | Selectivity Index (N. fowleri trophozoites [2]) | IC50 (N. fowleri trophozoites [2]; Naegleria fowleri) [µM] | IC90 (N. fowleri trophozoites [2]; Naegleria fowleri) [µM] | morphological changes of N. fowleri (microscopy) (N. fowleri trophozoites [2]) | mitochondrial membrane potential (ΔΨm), JC-1 (N. fowleri trophozoites [3]) | Relative Potency to Miltefosine (N. fowleri trophozoites [2]) [fold] | fold the potency of trans-configured behenyl derivative 2d (N. fowleri trophozoites [2]; N. fowleri IC50 ratio versus compound 2d) [fold] | IC50 (N. fowleri trophozoites [2]) [µM]
CCCCCCCCCCCCCO[C@@H]1CCC[C@H]1COP(=O)([O-])OCC[N+](C)(C)C [Compound 2a] | 316.6 ± 2.1 | 7.53 | 42 ± 1.32 | 109 | dose-dependent morphological changes | loss of ΔΨm |  |  | 
CCCCCCCCCCCCCOC[C@@H]1CCC[C@H]1OP(=O)([O-])OCC[N+](C)(C)C [Compound 3b] | 159.5 ± 0.87 | 3.90 | 40.9 ± 1.9 | 104 | dose-dependent morphological changes | loss of ΔΨm |  |  | 
CCCCCCCCCCCCCCCCCCCCCCOC[C@@H]1CCC[C@H]1OP(=O)([O-])OCC[N+](C)(C)C [Compound 3d] | 84.9 ± 1.29 | 3.49 | 24.3 ± 1.1 | 187 | dose-dependent morphological changes | loss of ΔΨm | 6.03 | 2.29 | 
CCCCCCCCCCCCCCCCOP(=O)([O-])OCC[N+](C)(C)C [Miltefosine] | 157.8 ± 1.49 | ~1.08 | 146.44 ± 0.12 | > 200 |  | loss of ΔΨm | 1.00 |  | 146.53 ± 0.12
